Where no end group is shown, it is not given here.
Tests used:
[1] = tested on: HIV-1IIIB; assay: HIV-1 antiviral assay in CEM-SS cells (MTS readout)
[2] = tested on: Primary Human endothelial cells (HUVEC); assay: Endothelial cell migration assay; conditions: 10 micrograms per ml, 22 hours, combination peptide 1:peptide 2 0.95 mole:1.05 mole
Description: Primary Human endothelial cells (HUVEC) were seeded in insert chambers with 3 micrometer pore size of multi-transwell plate for 6 hours at 37° C. in Endothelial Cell Basal Medium (EBM) supplemented with 0.1% bovine serum albumin. Thereafter, designated concentration of testing peptides -10 micrograms per ml—was added in duplicate wells. The endothelia were allowed to migrate for 22 hours at 37° C., then, migrated cells were fixed and stained with Hoechst 33342 dye. Images of 3 fields per insert were taken and the number of migrated cells per field were quantified using the ImageProPlus software. Data were analyzed for the average number of the migrated cells and standard deviation of six data points for each treatment condition. […] Statistic p values were computed using the Student's t-test.

[3] = tested on: RAW 264.7 cells; assay: Phagocytosis assay (Fluorescein-labeled Escherichia coli, flow cytometry); conditions: 10 micrograms per ml, combination peptide 1:peptide 2 1.10 mole:0.90 mole
Description: RAW 264.7 (Mouse leukaemic monocyte macrophage cell line) cells were obtained from ATCC and grown in RPMI 1640 medium containing 10% FBS. Cells were incubated in 12×75 mm tubes at 37° C. with test peptides—10 micrograms per ml—for 30 min prior to adding Fluorescein-labeled Escherichia coli bacteria as the agent to be ingested. After the cells were incubated for additional 60 min at 37° C. and allowed to ingest the Fluorescein-labeled Escherichia coli bacteria, cells were fixed with 1% paraformaldehyde. The samples were then analyzed by flow cytometry to determine the amount of phagocytosis as a function of brightness (the greater the phagocytic activity, the more fluorescence in the macrophage population). Data are reported as % positive and the mean fluorescence intensity (MFI) of positively stained cells.

[4] = tested on: hepatitis B virus (HBV) ayw strain; assay: HBV experimental assay system (HepG2-2.2.15, TaqMan PCR of secreted HBV DNA); assay type: cell-based; conditions: 10 micrograms per ml; HepG2-2.2.15 cells; six days; HBV DNA by TaqMan PCR
Description: HepG2-2.2.15 is a stable cell line containing the hepatitis B virus (HBV) ayw strain genome (ATCC Cat. No. CRL-11997). Antiviral compounds blocking any late step of viral replication such as transcription, translation, pregenome encapsidation, reverse transcription, particle assembly and release can be identified and characterized using this cell line. In this assay, an active compound will reduce the production of secreted HBV from cells, measured by utilizing real time quantitative PCR (TaqMan) assay to directly and accurately measure HBV DNA copies.
HepG2-2.2.15 cells were plated in 96-well microtiter plates. After 16-24 hours the confluent monolayer of HepG2-2.2.15 cells was washed and the medium was replaced with complete medium containing test peptides—10 micrograms per ml—in duplicate. […] Six days following the initial administration of the peptides, the cell culture supernatants was collected, treated with pronase and DNAse and then used in a real-time quantitative TaqMan PCR assay. The PCR-amplified HBV DNA was detected in real-time by monitoring increases in fluorescence signals that result from the exonucleolytic degradation of a quenched fluorescence probe molecule that hybridizes to the amplified HBV DNA. […] Antiviral activity was calculated from the reduction in HBV DNA levels (% virus control). […]

[5] = tested on: HCMV strain AD169; assay: HCMV plaque formation assay in MRC-5 cells; conditions: 10 micrograms per ml, 7-10 days
[6] = tested on: HUVEC; assay: Endothelial tube formation assay; conditions: 10 micrograms per ml, 20 hours, combination peptide 1:peptide 2 0.95 mole:1.05 mole
Description: The endothelial tube formation assay is based on the ability of endothelial cells to form three-dimensional capillary-like tubular structures when cultured on a gel of basement membrane extract. […] Pre-labeled HUVEC with Calcein AM were seeded in a 96-well culture plate coated with extracellular metrix (Chemicon international Cat. ECM625) and treated with test peptides—10 micrograms per ml—in full growth medium. Positive control was vehicle only. The endothelial cells were allowed to form tubes foe 20 hours and were then examined under an inverted fluorescent microscope. Duplicate wells for each treatment were photographed and quantitatevily analyzed for an average tubule length using image analysis software ImageProPlus. Raw data were expressed as average tubule lengths in pixels ±standard deviation. Statistic p values were computed using the Student's t-test.

[7] = tested on: spleen cells; assay: Th1/Th2 cytokine profiling assay (Ovalbumin-restimulated spleen cells, CBA Kit); assay type: cell-based, Balb/c mice; conditions: 10 micrograms per ml; Ovalbumin restimulation; 72 hours
Description: The Balb/c mice (originated in 1923, it is a popular strain and is used in many different research disciplines. Also classified as an inbred from the production of 20 or more successive brother-sister matings, the Balb/c mouse is albino and small in size) were immunized on Days 1, 15, and 29 with Ovalbumin (Ovalbumin is the main protein found in egg white, commonly used to stimulate an immunological reaction in test animals) in PBS (5 micrograms/injection). On day 50, spleens of the mice were harvested (3 weeks after last boost with Ovalbumin). […] Thereafter, additional Ovalbumin was added to the cells at 10 micrograms/ml for in vitro restimulation of the cells. 72 hours later, cell supernatants were harvested and assayed using the Becton Dickinson Mouse Th1/Th2 Cytokine CBA Kit. This kit can be used to measure Interleukin-2 (IL-2), Interleukin-4 (IL-4), Interleukin-5 (IL-5), Interferon-γ (IFN-γ), and Tumor Necrosis Factor-α (TNF-α) protein levels in a single sample.

Compound | antiviral activity of positive control compounds (HIV-1) [1] | inhibition of the migration of human endothelial cells [2] | effect on the phagocytic activity of murine macrophages (increase) [3] | inhibition of HBV replication as compared to the virus control infection [4] | inhibition of HCMV plaque formation as compared to the virus control [5] | inhibition of the tube formation of endothelial cells [6] [%] | IFNγ spleen cells; TH1 response (% of control) [7] | IL-2 spleen cells (% of control) [7] | IL-4 spleen cells; TH2 response (% of control) [7] | IL-5 spleen cells; TH2 response (% of control) [7] | TNF-a spleen cells; TH1 response (% of control) [7]
Cc1cn([C@H]2C[C@H](N=[N+]=[N-])[C@@H](CO)O2)c(=O)[nH]c1=O [AZT] | expected levels of antiviral activity | – | – | – | – | – | – | – | – | – | –
CC(C)(C)NC(=O)[C@@H]1CN(Cc2cccnc2)CCN1C[C@@H](O)C[C@@H](Cc1ccccc1)C(=O)N[C@H]1c2ccccc2C[C@H]1O [indinavir] | expected levels of antiviral activity | – | – | – | – | – | – | – | – | – | –
Tyr-Pro-Trp-Gly-NH2 (YPWG-NH2) [Peptide 1] | – | did not inhibit | no inhibitory or activating effects | 14.7% | did not inhibit | 40 | 62.0 % of control | 83.2 % of control | 77.4 % of control | 57.1 % of control | 82.3 % of control
His-Pro-Gly-Ser-Arg-Ile-Val-Leu-Ser-Leu-Asp-Val-Pro-Ile-Gly-Leu-Leu-Gln-Ile-Leu-Leu-Glu-Gln-Ala-Arg-Ala-Arg-Ala-Ala-Arg-Glu-Gln-Ala-Thr-Thr-Asn-Ala-Arg-Ile-Leu-Ala-Arg-Val-NH2 (HPGSRIVLSLDVPIGLLQILLEQARARAAREQATTNARILARV-NH2) [Peptide 2] | – | 15% | 31.4% | no effect | did not inhibit | 35 | 105.6 % of control | 66.8 % of control | 68.9 % of control | 67.0 % of control | 125.6 % of control
